# Data taken from PubChem BioAssay AID1919013 (Molecular Pharmacology Branch, DTP, NCI, 2023).
# System: LG0703-F498-PDC complex spheroid growth
# Experiment: Anticancer human tumor LG0703-F498-PDC patient-derived lung adenocarcinoma cell line growth inhibition [AhR]
# Conditions: for IC50: curve of first compound; for viability, T/C: stronger effect = lower value
# Procedure, shortened: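 Agents were dosed in half-log steps down from roughly clinical Cmax, or from 10 microM where Cmax was unknown, alone and with AhR antagonists. Read-out: percent test/control growth of tumor spheroids containing HUVEC and MSC stromal cells.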
# 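Also: luminescence taken as a proxy for viable cell amount.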
# 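For viability, T/C in this document: percent of DMSO vehicle control where 100% means growth equal to vehicle.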
compound,measurement,setting,value
Cn1ncnc1C1c2n[nH]c(=O)c3cc(F)cc(c23)NC1c1ccc(F)cc1 (stereo not given) + Cc1cncc(-c2nc(NCCc3c[nH]c4ccccc34)c3ncn(C(C)C)c3n2)c1,IC50,second compound 0.1 µM,> 100 nM
same,IC50,second compound 0.316 µM,> 100 nM
same,IC50,second compound 1 µM,> 100 nM
same,IC50,second compound 3.16 µM,< 0.316 nM
same,IC50,second compound 10 µM,< 0.316 nM
same,"viability, T/C","second compound 0.1 µM, first compound 0.000316 µM",101%
same,"viability, T/C","second compound 0.1 µM, first compound 0.001 µM",93.3%
same,"viability, T/C","second compound 0.1 µM, first compound 0.00316 µM",93.2%
same,"viability, T/C","second compound 0.1 µM, first compound 0.01 µM",93.8%
same,"viability, T/C","second compound 0.1 µM, first compound 0.0316 µM",91.3%
same,"viability, T/C","second compound 0.1 µM, first compound 0.1 µM",82.6%
same,"viability, T/C","second compound 0.316 µM, first compound 0.000316 µM",94.6%
same,"viability, T/C","second compound 0.316 µM, first compound 0.001 µM",108%
same,"viability, T/C","second compound 0.316 µM, first compound 0.00316 µM",98.4%
same,"viability, T/C","second compound 0.316 µM, first compound 0.01 µM",98.5%
same,"viability, T/C","second compound 0.316 µM, first compound 0.0316 µM",104%
same,"viability, T/C","second compound 0.316 µM, first compound 0.1 µM",89.1%
same,"viability, T/C","second compound 1 µM, first compound 0.000316 µM",103%
same,"viability, T/C","second compound 1 µM, first compound 0.001 µM",116%
same,"viability, T/C","second compound 1 µM, first compound 0.00316 µM",100%
same,"viability, T/C","second compound 1 µM, first compound 0.01 µM",106%
same,"viability, T/C","second compound 1 µM, first compound 0.0316 µM",109%
same,"viability, T/C","second compound 1 µM, first compound 0.1 µM",95.7%
same,"viability, T/C","second compound 3.16 µM, first compound 0.000316 µM",49.3%
same,"viability, T/C","second compound 3.16 µM, first compound 0.001 µM",47%
same,"viability, T/C","second compound 3.16 µM, first compound 0.00316 µM",58.2%
same,"viability, T/C","second compound 3.16 µM, first compound 0.01 µM",42.4%
same,"viability, T/C","second compound 3.16 µM, first compound 0.0316 µM",48%
same,"viability, T/C","second compound 3.16 µM, first compound 0.1 µM",54%
same,"viability, T/C","second compound 10 µM, first compound 0.000316 µM",1.14%
same,"viability, T/C","second compound 10 µM, first compound 0.001 µM",1.01%
same,"viability, T/C","second compound 10 µM, first compound 0.00316 µM",1.11%
same,"viability, T/C","second compound 10 µM, first compound 0.01 µM",1.03%
same,"viability, T/C","second compound 10 µM, first compound 0.0316 µM",1.15%
same,"viability, T/C","second compound 10 µM, first compound 0.1 µM",1.54%
